# Experimental data reported in US20210139902A1, “RNAI TARGET GENE THAT IS HIGHLY LETHAL TO APHIDS AND USE THEREOF” (CAS Center For Excellence in Molecular Plant Sciences, priority 2018, published 2021).
# Test system: green peach aphid
# Experiment: Field test of green peach aphid: dsRNA spray compared with imidacloprid
# Type: in vivo, Myzus persicae
# Details: dsRNA 300 ng/μl in water, 300 μl per plant, imidacloprid 10,000 times solution
# Source text: Control effect (%)=(1−CK0×PT1/CK1×PT0)×100
# wherein PT0: the number of insects before drug administration in the treatment area; PT1: the number of insects after drug administration in the treatment area; • CK0: the number of insects before drug administration in the control area; CK1: the number of insects after drug administration in the control area.
# the dropping rate of insect population (%)=[(number of insects before drug administration−number of insects after drug administration)/number of insects before drug administration]×100
# 1. Radish seedlings of 12-15 days, inoculated with 100 insects, stabilized for 1 day, sprayed with dsRNA the next day.
# 2. The concentration of dsRNA used for spraying was 300 ng/μl. The synthesized dsRNA was dissolved in water and sprayed 300 μl per plant.
# 3. The concentration of imidacloprid was 10,000 times solution (Germany Bayer Emerald 70% imidacloprid 3 g, water dispersible granules), sprayed 300 μl per plant.
# 4. The experiment method: spray treatment, 4 replicates for each treatment.
structure (smiles),measurement,setting,value
"O=[N+]([O-])NC1=NCCN1Cc1ccc(Cl)nc1 [Imidacloprid, imidacloprid]","Field test of green peach aphid: Control effect, 1 d",1 d,70.96 ± 4.25 Cc %
same,"Field test of green peach aphid: the dropping rate of insect population, 1 d","1 d, radish seedlings, 100 insects",37.33 ± 9.65 Bb %
same,"Field test of green peach aphid: Control effect, 3 d",3 d,93.78 ± 3.14 Cb %
same,"Field test of green peach aphid: the dropping rate of insect population, 3 d","3 d, radish seedlings, 100 insects",75.83 ± 15.25 Bb %
same,"Field test of green peach aphid: Control effect, 5 d",5 d,97.37 ± 1.88 Bb %
same,"Field test of green peach aphid: the dropping rate of insect population, 5 d","5 d, radish seedlings, 100 insects",84.35 ± 9.60 Bb %
